Measurements: PubChem BioAssay AID1963964 (Molecular Pharmacology Branch, DTP, NCI, 2024)
pIC50: −log10 of the molar value.

Tested on: 997726-040-R-J2-PDC tumor spheroids, viability
Assay: Anticancer human tumor 997726-040-R-J2-PDC patient-derived squamous cell lung carcinoma cell line growth inhibition [PI3K]
Conditions: spheroids with HUVEC and MSC; for pIC50: curve of first compound; for viability, T/C: stronger effect = lower value
How it was run: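 High-throughput combination screen: PI3K inhibitors crossed with targeted small molecules on complex spheroids of tumor cells, HUVEC and MSCs at 37 degrees C, 5% CO2. Top concentration was at or near clinical Cmax (otherwise 10 microM), with half-log decrements.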

[1] = second compound 0.0316 µM, first compound 0.000316 µM
[2] = second compound 0.0316 µM, first compound 0.001 µM
[3] = second compound 0.0316 µM, first compound 0.00316 µM
[4] = second compound 0.0316 µM, first compound 0.01 µM
[5] = second compound 0.0316 µM, first compound 0.0316 µM
[6] = second compound 0.0316 µM, first compound 0.1 µM
[7] = second compound 0.1 µM, first compound 0.000316 µM
[8] = second compound 0.1 µM, first compound 0.001 µM
[9] = second compound 0.1 µM, first compound 0.00316 µM
[10] = second compound 0.1 µM, first compound 0.01 µM
[11] = second compound 0.1 µM, first compound 0.0316 µM
[12] = second compound 0.1 µM, first compound 0.1 µM
[13] = second compound 0.316 µM, first compound 0.000316 µM
[14] = second compound 0.316 µM, first compound 0.001 µM
[15] = second compound 0.316 µM, first compound 0.00316 µM
[16] = second compound 0.316 µM, first compound 0.01 µM
[17] = second compound 0.316 µM, first compound 0.0316 µM
[18] = second compound 0.316 µM, first compound 0.1 µM
[19] = second compound 1 µM, first compound 0.000316 µM
[20] = second compound 1 µM, first compound 0.001 µM
[21] = second compound 1 µM, first compound 0.00316 µM
[22] = second compound 1 µM, first compound 0.01 µM
[23] = second compound 1 µM, first compound 0.0316 µM
[24] = second compound 1 µM, first compound 0.1 µM
[25] = second compound 3.16 µM, first compound 0.000316 µM
[26] = second compound 3.16 µM, first compound 0.001 µM
[27] = second compound 3.16 µM, first compound 0.00316 µM
[28] = second compound 3.16 µM, first compound 0.01 µM
[29] = second compound 3.16 µM, first compound 0.0316 µM
[30] = second compound 3.16 µM, first compound 0.1 µM
[31] = second compound 10 µM, first compound 0.000316 µM
[32] = second compound 10 µM, first compound 0.001 µM
[33] = second compound 10 µM, first compound 0.00316 µM
[34] = second compound 10 µM, first compound 0.01 µM
[35] = second compound 10 µM, first compound 0.0316 µM
[36] = second compound 10 µM, first compound 0.1 µM
[37] = second compound 0.0316 µM, first compound 0.316 µM
[38] = second compound 0.0316 µM, first compound 1 µM
[39] = second compound 0.0316 µM, first compound 3.16 µM
[40] = second compound 0.0316 µM, first compound 10 µM
[41] = second compound 0.1 µM, first compound 0.316 µM
[42] = second compound 0.1 µM, first compound 1 µM
[43] = second compound 0.1 µM, first compound 3.16 µM
[44] = second compound 0.1 µM, first compound 10 µM
[45] = second compound 0.316 µM, first compound 0.316 µM
[46] = second compound 0.316 µM, first compound 1 µM
[47] = second compound 0.316 µM, first compound 3.16 µM
[48] = second compound 0.316 µM, first compound 10 µM
[49] = second compound 1 µM, first compound 0.316 µM
[50] = second compound 1 µM, first compound 1 µM
[51] = second compound 1 µM, first compound 3.16 µM
[52] = second compound 1 µM, first compound 10 µM
[53] = second compound 3.16 µM, first compound 0.316 µM
[54] = second compound 3.16 µM, first compound 1 µM
[55] = second compound 3.16 µM, first compound 3.16 µM
[56] = second compound 3.16 µM, first compound 10 µM
[57] = second compound 10 µM, first compound 0.316 µM
[58] = second compound 10 µM, first compound 1 µM
[59] = second compound 10 µM, first compound 3.16 µM
[60] = second compound 10 µM, first compound 10 µM
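Further: spheroids exposed to compounds for seven days before readout.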

In the case of CC(=O)c1c(C)c2cnc(Nc3ccc(N4CCNCC4)cn3)nc2n(C2CCCC2)c1=O + CC(Nc1ncnc2nc[nH]c12)c1cc2cccc(Cl)c2c(=O)n1-c1ccccc1, the pIC50 (second compound 0.0316 µM) was < 7.00, the pIC50 (second compound 0.1 µM) was < 7.00 and the pIC50 (second compound 0.316 µM) was < 7.00. The pIC50 (second compound 1 µM) was < 7.00, the pIC50 (second compound 3.16 µM) was < 7.00 and the pIC50 (second compound 10 µM) was 7.97. It also gave a viability, T/C [1] of 94%, a viability, T/C [2] of 109% and a viability, T/C [3] of 93.7%. For the same compound, the viability, T/C [4] was 87.7%, the viability, T/C [5] was 86.1% and the viability, T/C [6] was 61.2%. It also gave a viability, T/C [7] of 102%, a viability, T/C [8] of 94.8% and a viability, T/C [9] of 91.3%. The viability, T/C [10] was 96.6%, the viability, T/C [11] was 78.3% and the viability, T/C [12] was 65.5%. The viability, T/C [13] was 99.8%, the viability, T/C [14] was 96.7% and the viability, T/C [15] was 91.3%. The viability, T/C [16] was 83.5%, the viability, T/C [17] was 81.6% and the viability, T/C [18] was 57.3%. It also gave a viability, T/C [19] of 97.1%, a viability, T/C [20] of 85.7% and a viability, T/C [21] of 86.9%. The viability, T/C [22] was 74.1%, the viability, T/C [23] was 75.8% and the viability, T/C [24] was 53.3%. For the same compound, the viability, T/C [25] was 72.9%, the viability, T/C [26] was 71.7% and the viability, T/C [27] was 77.3%. The viability, T/C [28] was 70.1%, the viability, T/C [29] was 58.4% and the viability, T/C [30] was 50.4%. The viability, T/C [31] was 53.9%, the viability, T/C [32] was 51.6% and the viability, T/C [33] was 56.9%. For the same compound, the viability, T/C [34] was 50.4%, the viability, T/C [35] was 41.8% and the viability, T/C [36] was 43.4%.
CC(C)n1nc(-c2ccc3oc(N)nc3c2)c2c(N)ncnc21 + CC(Nc1ncnc2nc[nH]c12)c1cc2cccc(Cl)c2c(=O)n1-c1ccccc1 gave a pIC50 (second compound 0.0316 µM) of 7.63, a pIC50 (second compound 0.1 µM) of 7.60 and a pIC50 (second compound 0.316 µM) of 7.62. For the same compound, the pIC50 (second compound 1 µM) was 7.68, the pIC50 (second compound 3.16 µM) was 8.21 and the pIC50 (second compound 10 µM) was 8.60. It also gave a viability, T/C [1] of 99.1%, a viability, T/C [2] of 89.6% and a viability, T/C [3] of 77.3%. The viability, T/C [4] was 62.1%, the viability, T/C [5] was 50% and the viability, T/C [6] was 18%. For the same compound, the viability, T/C [7] was 99.3%, the viability, T/C [8] was 88.2% and the viability, T/C [9] was 80.2%. The viability, T/C [10] was 64%, the viability, T/C [11] was 48.6% and the viability, T/C [12] was 19.5%. The viability, T/C [13] was 93.2%, the viability, T/C [14] was 90.7% and the viability, T/C [15] was 75.3%. It also gave a viability, T/C [16] of 62.8%, a viability, T/C [17] of 48.7% and a viability, T/C [18] of 17.4%. The viability, T/C [19] was 86.2%, the viability, T/C [20] was 83.1% and the viability, T/C [21] was 70.2%. The viability, T/C [22] was 63.8%, the viability, T/C [23] was 43.4% and the viability, T/C [24] was 17%. The viability, T/C [25] was 75.4%, the viability, T/C [26] was 65.2% and the viability, T/C [27] was 53.2%. The viability, T/C [28] was 45.4%, the viability, T/C [29] was 39.4% and the viability, T/C [30] was 16.7%. The viability, T/C [31] was 56.8%, the viability, T/C [32] was 51.4% and the viability, T/C [33] was 50%. The viability, T/C [34] was 41.8%, the viability, T/C [35] was 31.2% and the viability, T/C [36] was 11.9%.
Compound CCCS(=O)(=O)Nc1ccc(F)c(C(=O)c2c[nH]c3ncc(-c4ccc(Cl)cc4)cc23)c1F + CC(Nc1ncnc2nc[nH]c12)c1cc2cccc(Cl)c2c(=O)n1-c1ccccc1 has a pIC50 (second compound 0.0316 µM) of 5.14, a pIC50 (second compound 0.1 µM) of 5.13 and a pIC50 (second compound 0.316 µM) of 5.13. The pIC50 (second compound 1 µM) was 5.14, the pIC50 (second compound 3.16 µM) was 5.23 and the pIC50 (second compound 10 µM) was 5.35. For the same compound, the viability, T/C [5] was 104%, the viability, T/C [6] was 103% and the viability, T/C [37] was 128%. For the same compound, the viability, T/C [38] was 137%, the viability, T/C [39] was 162% and the viability, T/C [40] was 20.9%. For the same compound, the viability, T/C [11] was 107%, the viability, T/C [12] was 116% and the viability, T/C [41] was 110%. It also gave a viability, T/C [42] of 121%, a viability, T/C [43] of 166% and a viability, T/C [44] of 23.1%. It also gave a viability, T/C [17] of 103%, a viability, T/C [18] of 102% and a viability, T/C [45] of 114%. The viability, T/C [46] was 138%, the viability, T/C [47] was 169% and the viability, T/C [48] was 23.1%. For the same compound, the viability, T/C [23] was 102%, the viability, T/C [24] was 95.5% and the viability, T/C [49] was 109%. For the same compound, the viability, T/C [50] was 126%, the viability, T/C [51] was 146% and the viability, T/C [52] was 23%. For the same compound, the viability, T/C [29] was 71.1%, the viability, T/C [30] was 80% and the viability, T/C [53] was 83.9%. For the same compound, the viability, T/C [54] was 85.4%, the viability, T/C [55] was 107% and the viability, T/C [56] was 20.5%. For the same compound, the viability, T/C [35] was 53.7%, the viability, T/C [36] was 57.2% and the viability, T/C [57] was 60.1%. For the same compound, the viability, T/C [58] was 60.4%, the viability, T/C [59] was 82.6% and the viability, T/C [60] was 19.3%.
CNC(=O)c1ccc(N2C(=S)N(c3ccc(C#N)c(C(F)(F)F)c3)C(=O)C2(C)C)cc1F + CC(Nc1ncnc2nc[nH]c12)c1cc2cccc(Cl)c2c(=O)n1-c1ccccc1 was tested, and the pIC50 (second compound 0.0316 µM) was < 5.00, the pIC50 (second compound 0.1 µM) was < 5.00 and the pIC50 (second compound 0.316 µM) was < 5.00. For the same compound, the pIC50 (second compound 1 µM) was < 5.00, the pIC50 (second compound 3.16 µM) was < 5.00 and the pIC50 (second compound 10 µM) was < 5.00. The viability, T/C [5] was 88.7%, the viability, T/C [6] was 97.8% and the viability, T/C [37] was 115%. The viability, T/C [38] was 90.4%, the viability, T/C [39] was 102% and the viability, T/C [40] was 86.7%. For the same compound, the viability, T/C [11] was 98%, the viability, T/C [12] was 93.6% and the viability, T/C [41] was 97%. The viability, T/C [42] was 107%, the viability, T/C [43] was 104% and the viability, T/C [44] was 92.4%. It also gave a viability, T/C [17] of 104%, a viability, T/C [18] of 109% and a viability, T/C [45] of 101%. For the same compound, the viability, T/C [46] was 99.2%, the viability, T/C [47] was 104% and the viability, T/C [48] was 90.2%. For the same compound, the viability, T/C [23] was 96.7%, the viability, T/C [24] was 86.6% and the viability, T/C [49] was 78.7%. For the same compound, the viability, T/C [50] was 85%, the viability, T/C [51] was 89% and the viability, T/C [52] was 86.9%. It also gave a viability, T/C [29] of 71%, a viability, T/C [30] of 73.8% and a viability, T/C [53] of 72.6%. The viability, T/C [54] was 80%, the viability, T/C [55] was 80.3% and the viability, T/C [56] was 66.2%. The viability, T/C [35] was 59.5%, the viability, T/C [36] was 53.9% and the viability, T/C [57] was 50.6%. It also gave a viability, T/C [58] of 48%, a viability, T/C [59] of 54.4% and a viability, T/C [60] of 50%.
